Like-named read-outs stand apart in the source and are kept apart here.
How the values were obtained:
[1] = biological target: T1, Bad-GFP with Bcl-2 or Bcl-xL in BSC-1 cells (Homo sapiens, UniProt Q07817); assay: Bad-GFP localization in intact cells; format: cell-based; details: for mitochondrial targeting and heterodimerization of Bad-GFP: BH3I-1 100 μM, BH3I-2 50 μM, 6 hr, 100 μM zVAD; for order of activities, Bad-GFP localization: rank order
T1 construct: expressed in transfected cells; host or cells: BSC-1 cells
Experimental: Bad is a pro-apoptotic member of the Bcl-2 family, whose apoptosis-promoting activity and mitochondrial targeting depends on heterodimerization with anti-apoptotic Bcl-2 family members (Zha et al., Cell 87, 619-28, 1996). To examine the effects of BH3Is on Bad localization, BSC-1 cells were transfected with 5 μg of Bad-GFP expression vector alone (FIG. 8D, panels 1 […]) or were co-transfected with 5 μg of Bad-GFP and 5 μg of Bcl-xL-T7 (FIG. 8D, panels 2-5). Twenty four hours after transfection, cells were treated with BH3I-1 (100 μM; FIG. 8D, panel 4) or BH3I-2 (50 μM; FIG. 8D, panel 5) for 6 hr. In order to determine mitochondrial localization, cells were pre-stained with MitoTracker Red CMXRos for 30 min prior to fixation (FIG. 8D, panel 2). All cells in this study were pretreated with 100 μM zVAD to decrease the detrimental effects of overexpression of proapoptotic Bcl-2 proteins on cell viability.
(§1) BH3Is disrupted the mitochondrial association of Bad, but not Bcl-xL, after in vitro treatment of the mitochondria isolated from 293 cells co-transfected with Bad and Bcl-xL (FIG. 8C). The relative activities of the BH3Is in this assay (BH3I-2>BH3I-1>BH3I-1″) were consistent with the previous results. […] Again, the order of the activities in these assays was BH3I-2>BH3I-1>BH3I-1″.

Jurkat cells = assay: Cytotoxicity by MTS assay and propidium iodide uptake; format: cell-based
Experimental: Since BH3Is induce apoptosis, their mode of action, for example, through disruption of BH3 domain interactions, was investigated next. If apoptosis induced by a BH3I is BH3-dependent, then cytotoxicity should correlate with the compound's ability to disrupt BH3 domain interactions in vitro. To examine this possibility, Jurkat cells were treated with the BH3 Is and the occurrence of cell death was assayed by the MTS assay and propidium iodide (PI) uptake (FIG. 7A). The cytotoxicity of BH3-Is followed the order of BH3I-2′>BH3I-2>BH3I-2″>BH3I-1>BH3I-1′>BH3I-1″>BH3I-1′″ which paralleled the order of their Ki values determined using in vitro Bcl-xL binding assays (FIGS. 7B and 7C). Similar data were obtained using a trypan blue exclusion assay.

[2] = biological target: T2, Bad / Bcl-xL on mitochondria isolated from 293 cells (Homo sapiens, UniProt Q07817); assay: Mitochondrial association of Bad in isolated mitochondria; details: rank order
T2 construct: expressed in transfected cells; host or cells: 293 cells (isolated mitochondria)
Experimental: FIG. 8C is an images of a the expression of Bad and Bcl-xL in 293 cells co-transfected with HA-Bad and Bcl-xL-T7. After 48 hr, cells were harvested and isolated mitochondria were treated with BH3Is for 2 hrs. Following treatment, mitochondria were pelleted by centrifugation and subjected to Western blot analysis using anti-HA and anti-T 7 antibodies.
as §1

[3] = biological target: T3, Bcl-xL/Bax heterodimerization in 293 cells (Homo sapiens, UniProt Q07817); assay: FRET between Bcl-xL-CFP and Bax-YFP in intact cells; format: cell-based; details: rank order; for order of relative effects on YFP fluorescence reduction: rough index of cell death
T3 construct: expressed in transfected cells; host or cells: 293 cells
Description: The effect of the BH3Is on the disruption of the heterodimerization of Bcl-2 family proteins in vivo was next determined. Dimerization of Bcl-2 in immunoprecipitation experiments may represent post-lysis events induced by detergents (Hsu et al., J. Biol. Chem. 272:13829-34, 1997). Therefore, these studies focused on assaying the Bcl-xL dimerization status in intact cells. Recently, the interaction between Bax and Bcl-2 has been studied in intact living cells by fluorescent resonance energy transfer measurements between GFP fusion proteins (Mahajan et al., Nat. Biotechnol. 16:547-52, 1998). This approach was used to monitor the effects of BH3Is on Bcl-xL/Bax heterodimerization in intact cells.
293 cells were transfected with Bcl-xL-CFP and Bax-YFP expression vectors using Lipofectamine Plus (Gibco) or TransLT-1 (PanVera) and 24 hr later were treated with BH3Is. Cells were harvested in PBS supplemented with BH3Is, and fluorescence was determined using a C-60 fluorimeter (PTI) or a Wallac platereader. Fluorescence in the samples separately overexpressing Bax and Bcl-xL was added together and used to estimate the FRET value in the absence of dimerization. The extent of FRET between CFP and YFP was determined as a ratio of fluorescence at 527 nm vs. 475 nm after excitation at 433 nm.

BH3/Bcl-xL binding = assay: SELDI binding assay, unlabeled Bak BH3 peptide on immobilized Bcl-xL-His6; details: for relative activity in SELDI assay: comparison between compounds
Description: To test the possibility that BH3Is target the OREGON GREEN moiety of the fluorescently labeled BH3 peptide, a novel BH3/Bcl-xL binding assay using unlabeled BH3 peptide was designed. In this assay Bcl-xL was covalently attached to a surface-enhanced laser desorption/ionization (SELDI) chip, and binding of the unlabelled BH3 peptide to the immobilized protein was monitored by mass spectrometry. Specifically, purified recombinant GST-Bcl-2 and BCL-xL-His6 were coupled through their primary amines to SELDI chip surfaces derivatized with carbonyldiimidazole (Ciphergen). Bak BH3 peptide was then added (in a total volume of 1 μl) for 12 hours at 4° C. in a humidified chamber, to allow binding to each spot of the SELDI chip. The chip was then washed with alternating high and low pH-0.1M sodium acetate with 0.5M NaCl, followed by 0.01M HEPES; pH 7.3. The samples were embedded in α-cyanno-4-hydroxycinnamaic acid matrix and analyzed for mass by MALDI TOF. An average of 100 laser shots at a constant setting were collected over 20 spots in each sample.

[4] = test system: tBid / Bcl-xL heterodimerization; assay: tBid pulldown with Bcl-xL-His6 beads; format: binding; details: for effect on tBid binding to Bcl-xL: 35S labeled in vitro translated tBid; for relative activity in tBid pulldown: comparison between compounds
Experimental: Next, it was determined whether BH3Is could disrupt the heterodimerization of Bcl-xL with pro-apoptotic proteins from the Bcl-2 family, such as truncated Bid (tBid). Truncation of Bid by caspase-8 activates Bid and dramatically increases its affinity towards anti-apoptotic Bcl-2 family members (Li et al., Cell 94:491-501, 1998). To perform this study, in vitro translation of tBid or U2AF^65 (control) was performed using TNT® Coupled Reticulocyte and Wheat Germ Lysate Systems (Promega) respectively. Bcl-xL, U2AF^35 (control) or corresponding amounts of original Ni-NTA agarose beads (blank) were pre-incubated with the BH3 inhibitors or peptide in 100 μl of PBS for 30 min at 25° C. Then 1 μl of ^35S-labeled tBID or U2AF^65 was added and incubation was continued for 2 hr at 4° C. The samples were subjected to SDS-PAGE, coomassie blue staining and autoradiography.

[5] = MTS assay and PI uptake, rank order

T2 sequence (Q07817 whole entry): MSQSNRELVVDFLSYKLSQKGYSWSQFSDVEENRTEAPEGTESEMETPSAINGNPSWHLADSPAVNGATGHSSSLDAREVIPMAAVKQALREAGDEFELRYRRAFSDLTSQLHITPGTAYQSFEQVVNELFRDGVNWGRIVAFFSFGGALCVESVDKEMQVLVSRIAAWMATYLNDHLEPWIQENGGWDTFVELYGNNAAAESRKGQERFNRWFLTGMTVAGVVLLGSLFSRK
T3 sequence (Q07817 whole entry, one chain of several): as the sequence (Q07817 whole entry) above
T1 sequence (Q07817 whole entry): as above

Row | Compound | mitochondrial targeting and heterodimerization of Bad-GFP [1] | order of activities, Bad-GFP localization [1] | order of cytotoxicity (Jurkat cells; [5]) | relative activities, mitochondrial association of Bad [2] | order of changes in the FRET ratio [3] | order of relative effects on YFP fluorescence reduction [3] | effect on BH3 peptide binding to Bcl-xL-modified SELDI surface (BH3/Bcl-xL binding) | effect on tBid binding to Bcl-xL [4] | relative activity in tBid pulldown [4] | order of cytotoxicity (Jurkat cells) | relative activity in SELDI assay (BH3/Bcl-xL binding)
1 | CC(C)C(C(=O)O)N1C(=O)C(=Cc2ccc(Br)cc2)SC1=S (stereo in doubt) [BH3I-1] | efficiently disrupted mitochondrial targeting and heterodimerization of Bad-GFP | BH3I-2>BH3I-1>BH3I-1″ | BH3I-2′>BH3I-2>BH3I-2″>BH3I-1>BH3I-1′>BH3I-1″>BH3I-1′″ | BH3I-2>BH3I-1>BH3I-1″ | BH3I-2>BH3I-1>BH3I-1″ | BH3I-2>BH3I-I>BH3I-1″ | reduction of BH3 binding | dose-dependent decrease in the tBid binding | lower activity than BH3I-2 |  | 
2 | CC(C)C(C(=O)O)N1C(=O)/C(=C/c2ccccc2)SC1=S (stereo not shown) [BH3I-1″] |  | BH3I-2>BH3I-1>BH3I-1″ |  | BH3I-2>BH3I-1>BH3I-1″ | BH3I-2>BH3I-1>BH3I-1″ | BH3I-2>BH3I-I>BH3I-1″ |  |  | even lower | BH3I-2′>BH3I-2>BH3I-2″>BH3I-1>BH3I-1′>BH3I-1″>BH3I-1′″ | lower potency than BH3I-1
3 | O=C(Nc1cc(S(=O)(=O)c2ccc(Cl)cc2)ccc1Cl)c1cc(Cl)cc(Br)c1O [BH3I-2] | efficiently disrupted mitochondrial targeting and heterodimerization of Bad-GFP | BH3I-2>BH3I-1>BH3I-1″ | BH3I-2′>BH3I-2>BH3I-2″>BH3I-1>BH3I-1′>BH3I-1″>BH3I-1′″ | BH3I-2>BH3I-1>BH3I-1″ | BH3I-2>BH3I-1>BH3I-1″ | BH3I-2>BH3I-I>BH3I-1″ | reduction of BH3 binding | dose-dependent decrease in the tBid binding |  |  | higher activity than BH3I-1
